US20060099568A1, “Signals and molecular species involved in senescence” (priority 2002, published 2006)

What was measured:
HDF [1] = test: viable cell counting (Trypan blue) with adenylyl cyclase inhibitor and/or LPA; assay type: cell-based, human; conditions: senescent cell culture; LPA plus adenylyl cyclase inhibitor (SQ22536 300 μM)
Experimental: O and Y denote old and young cell, respectively.
Young or old HDF (passage 8-11) were treated with LPA (30 μM), dbcAMP (cAMP analog, 1 mM, Sigma), adenylyl cyclase inhibitor, SQ22536 (300 μM, Calbiochem) and their combinations for 30-60 min at 37° C. The cells treated were stained with Trypan blue (GiBco/BRL) for 10 min at 37° C. and only cells without blue color were then counted under hemacytometer.

HDF [2] = test: flow cytometry (FACS, propidium iodide) of cell cycle progression; assay type: cell-based, human; conditions: senescent cell
Experimental: FIG. 21 represents the results of FACS analysis evaluating the effect of LPA on cell cycle progression in senescent cells in connection with the affection of cAMP control. Con denotes control group and ACI is adenylyl cyclase inhibitor.
In addition, the treated cells were analyzed using flow cytometry. The treated cells were harvested and treated with […] of 0.1% trypsin for 30 sec, after which centrifugation was performed at 4° C. for 10 min at 1000 rpm. Then, the cell concentration was adjusted to 1-3×10^6 cells/ml in sample buffer. The sample buffer was prepared in such a manner that 1 g glucose in 1 L PBS without Ca^2+ and Mg^2+ was filtered through a 0.22 μm filter. The solutions containing cells was centrifuged at 4° C. for 10 min at 1000 rpm and ice-cold 70% ethanol was added dropwise to pellet. The sample tube was capped, allowed to fix in the ethanol overnight at 4° C., vortexed briefly, and then centrifuged for 5 min at 3000 rpm. Thereafter, ethanol was discarded and PI (propidium iodide) staining solution (0.5 ml 20× propidium iodide stock solution (50 μg/ml final), 1000 kunits RNase A (100 U/ml final) and 10 ml sample buffer) was added into the sample tube. Finally, the sample was analyzed within 24 hr in a […] (FACS Calibur, Beckton-Dikinson).

[3] = test system: human diploid fibroblasts; test: growth factor-stimulated signaling events in human diploid fibroblasts; assay type: cell-based
Experimental: Foreskin fibroblasts were isolated as described by Boyce and Ham (1983). Cells were cultured in Dulbecco's modified Eagle's medium containing 10% fetal bovine serum and antibiotics. The primary culture contained smaller and more closely packed cells during the early stage of the culture. Cells with less than 10 passage were often considered as presenescent cells. As the cells were passaged, they became larger and they have a slower growth rate at passage 10-20. Cells from over 27 passages were completely growth-arrested and developed characteristic appearance designated previously as replicative senescence (Yeo et al., 2000a and b). In order to confirm that cells were senescent, we either examined the activity of beta-galactosidase or stained with X-gal, a membrane permeable substrate of the enzyme, which produces a blue insoluble product inside of the cells. The number of cells stained with X-gal increased with age and most of cells from passage 27-28 were stained. Cultures of over 23-28 passages have also shown the cessation of cell growth and senescence-like morphological changes, but only 70-80% of cells were stained with X-gal. These were termed “near-senescent”. Although the near-senescent cultures were not completely homogeneous, we compared the changes in these cultures to those in presenescent cultures of passage 6-10. In order to determine the growth factor-stimulated signaling events, cells were grown for 1-2 days to 60-70% sub-confluency in the culture medium, and then serum-starved to become quiescent by incubating with serum free medium (SFM) for 2 days. The quiescent cells were treated with various agonists, as described in the figure legends. To label cells, radioactive chemicals were added during the incubation with SFM.
Primary human diploid fibroblasts, isolated from newborn foreskins, were used to study the mechanism of reduced response to growth factor stimulation with aging. These cells were maintained and passaged as described previously (Yeo et al., 2000a). […] Compared to their presenescent counterparts, the senescent and near-senescent cells were larger and grew to lower density, as has been observed in other cell systems. Here the present inventors report upon the differential changes in the signaling events evoked by platelet-derived growth factor (PDGF) and lysophosphatidic acid (LPA). PDGF elicits signaling events over a concentration range of 10-100 ng/ml, whereas LPA stimulates the hydrolysis of phospholipids, Ca^2+ mobilization, and actin polymerization over a concentration range of 0.1-10 μg/ml in human diploid fibroblasts. In order to compare their cellular responses, we treated presenescent and senescent (or near-senescent) cells with PDGF and LPA at a maximally responsive dose of 50 ng/ml and 1 μg/ml, respectively.

[4] = test system: human diploid fibroblasts; test: measurement of cytosolic free [Ca2+]i by confocal microscopy (fluo-3-AM); assay type: cell-based; conditions: PDGF 50 ng/ml, LPA 1 μg/ml
Experimental: FIG. 1 represents differential changes in growth factor-stimulated calcium release in senescent fibroblasts. Presenescent (passage 7: A and C) and senescent (passage 27: B and D) fibroblasts were grown on coverslips, serum-starved, and incubated with 4 μM fluo-3-AM in serum-free medium for 40 min. The stained cells were treated with […] of platelet-derived growth factor (A and B) or 1 μg/ml of lysophosphatidic acid (C and D) via a micro-perfusion system for the real-time measurement of signaling molecules, and laser scanning confocal microscopy. The scanned images were analyzed for changes in intracellular Ca^2+ at the single cell level and results expressed as relative fluorescence intensity (RFI).
[Ca^2+]i was measured using a laser scanning confocal microscope, as described by Junn et al. (2000). Quiescent fibroblasts grown on glass cover slips in a 6-well plate were stained with 4 μM of fluo-3-acetoxymethyl ester (fluo-3-AM) in phenol red-free medium without serum for 40 min and washed three times with the serum-free medium. Stained cells on each cover slip were mounted on a perfusion chamber (MPS-1000, Seoul Engineering, Korea), placed under the confocal laser scanning microscope (Carl Zeiss LSM 410), and scanned every 5 sec with a 488 nm excitation argon laser and a 515 nm long pass emission filter. Growth factors were added to the cells using an automatic pumping system (self-designed). All scanned images were analyzed for [Ca ^2+]i changes at the single cell level using “Time Series Program” for a real-time measurement of relative fluorescence intensity (RFI) which is installed in the Carl Zeiss LSM 410 confocal system.

[5] = test system: human diploid fibroblasts; test: confocal microscopic measurement of actin polymerization (NBD-phallacidin); assay type: cell-based; conditions: PDGF 50 ng/ml, LPA 1 μg/ml
Experimental: FIG. 2 represents differential changes in growth factor-induced actin polymerization in senescent fibroblasts. […] The cells were fixed, permeabilized, and stained with NBD-phallacidin, then photographed.
F-actin was stained as described by Shin et al. (1999). Quiescent cells grown on glass cover slips in multi-well culture plates were treated with agonists for 30 min, and the cells were fixed with 3.7% paraformaldehyde in PBS for 30 min on ice. Following permeabilization with 0.2% Triton X-100 in PBS for 15 min on ice, the cells were stained with […] NBD-phallacidin in PBS for 30 min at RT. The stained cells were washed three times with PBS for 15 min and the cover slip was mounted on a slide glass with Gelvatol, which was prepared by mixing 100 ml of 23% polyvinyl alcohol in PBS with 50 ml glycerol. The cells were then observed under a confocal fluorescence microscope.

phospholipase D (PLD) = test: phosphatidylbutanol formation as an indication of phospholipase D activity; assay type: cell-based, human; conditions: passage 24 near-senescent cells vs presenescent; 0.5% 1-butanol, 20 min
Experimental: Subconfluent presenescent (passage 8: Pa 8) and near-senescent (passage 24: Pa 24) cells were serum-starved and labeled with [^3H]myristic acid overnight. […] A representative experiment of three performed in duplicate is presented.
Quiescent cells were labeled overnight with [^3H]myristic acid (1 μCi/ml) and then washed with PBS. Phosphatidylbutanol formation was measured as described by Yeo et al. (1994). Cells were preincubated with 0.5% (v/v) 1-butanol for 15 min and then treated with agonists for 20 min in the presence of 0.5% 1-butanol. Total lipids were extracted and separated by thin layer chromatography. The band of phosphatidylbutanol was scraped off the plates and its radioactivity was counted in a liquid scintillation cocktail.

[6] = test system: human diploid fibroblasts; test: DNA synthesis, [3H]thymidine incorporation; assay type: cell-based; conditions: for increase in [3H]thymidine incorporation: 50-100 ng/ml PDGF
Experimental: FIG. 5 represents reduction of growth factor-induced thymidine incorporation in near-senescent fibroblasts. […] The amount of [^3H]thymidine incorporated into DNA over 4 hrs was measured as described. The data represents an average of 3 counts in cpm. A representative experiment of the three is presented in A. Fold increase over the untreated control was calculated and plotted in B.
FIG. 18 represents changes in LPA-induced thymidine incorporation and cell proliferation in near-senescent fibroblasts versus presenescent fibroblasts. Subconfluent presenescent (passage 8, Pa 8) and near-senescent (passage 24, Pa 24) fibroblasts were serum-starved for 2 days and treated with LPA (1-70 μg/ml) for 16 hrs. The amount of [^3H]thymidine incorporated into DNA over 4 hrs was measured as described. The data represents an average of 3 counts in cpm in each independent experiments. A representative experiment of the three is presented in A. Converted fold increase over the untreated control was calculated and plotted in B.
Quiescent cells were labeled with [^3H]thymidine (0.5 μCi/ml) for 4 hrs and the […] radioactive thymidine was removed by washing with PBS. DNA was precipitated with 10% TCA and lysed in 0.5N NaOH. The radioactivity in neutralized lysates was counted in a liquid scintillation cocktail.

Phospholipase C (PLC) = conditions: near-senescent cells (passage 23) vs presenescent (passage 6); PDGF 50 ng/ml, LPA 1 μg/ml, 20 min, 20 mM LiCl
cellular cAMP = test: measurement of cyclic AMP accumulation (cAMP binding assay); assay type: cell-based, human; conditions: near-senescent HDF (passage 26); 30 μg/ml LPA; 10 μM inhibitor
Experimental: FIG. 9 represents LPA-induced alteration of cellular cAMP content in presenescent and near-senescent fibroblasts. Subconfluent presenescent (passage 8, Pa 8) and near-senescent (passage 24, Pa 24) fibroblasts were serum-starved for 2 days and treated with LPA: A, 1-70 μg/ml LPA for 30 min; B, 30 μg/ml LPA for the indicated times. The level of cAMP in the acid extracts was measured by cAMP binding assay. The data represents an average of triplicate experiments.
Subconfluent near-senescent (passage 26, Pa 26) fibroblasts were serum-starved for 2 days and treated with 30 μg/ml LPA for the indicated times in the absence or presence of 10 μM PKC inhibitor bisindolylmaleiamide (bIM). The level of cAMP in the acid extracts was measured by cAMP binding assay. The data represents an average of triplicate experiments.
Cells grown on a 12 well-plate were serum-starved by incubating with SFM for 2 days. After the cells were equilibrated in the fresh SFM medium for 1 hour, they were treated with LPA as described in the figure. The reaction was terminated by removing the medium and by adding 2.5 M perchloric acid. The acid extract was stored at −20° C. until use. The acid extract was neutralized with 4.2 M KOH and the cAMP content was determined by competitive binding with [^3H]cAMP to the cAMP binding protein, RIα of cAMP-dependent protein kinase, as described by Jang and Juhnn (2001). After the extraction, cells were lyzed with 0.1 N NaOH and analyzed for protein content using the Bradford protein assay reagent. The cAMP content was normalized to the amount of acid-insoluble protein.

[7] = near-senescent cells (passage 24)

Molecule: Nc1ncnc2c1ncn2C1CCCO1 (stereo not shown) [adenylyl cyclase inhibitor]
- viable cell number (HDF [1]): dramatically increased
- number of cells in S phase (HDF [2]; adenylyl cyclase inhibitor alone): dramatically increased
- number of cells in S phase (HDF [2]; co-treatment of adenylyl cyclase inhibitor with LPA): more enhanced

Molecule: PDGF
- concentration range over which signaling events are elicited ([3]; human diploid fibroblasts): 10 to 100 ng/mL
- maximally responsive dose ([3]; presenescent and senescent (or near-senescent) cells): 50 ng/mL
- cytosolic Ca2+ levels ([4]; presenescent fibroblasts (passage 7)): rapid increase
- Ca2+ response in senescent cells relative to presenescent ([4]; senescent cells (passage 27)): greatly attenuated
- actin polymerization (stress fibers) ([5]; presenescent fibroblasts (passage 10)): enhanced the formation of stress fibers
- agonist-induced actin polymerization in senescent cells ([5]; senescent cells (passage 27)): almost completely blocked
- reduction of PLD activity (phospholipase D (PLD)): 80%
- agonist-induced DNA synthesis ([3H]thymidine incorporation) in near-senescent cells vs presenescent [6, 7]: greatly reduced
- increase in [3H]thymidine incorporation [6, 7]: 1.3 fold
- increase in [3H]thymidine incorporation ([6]; presenescent cells (passage 8)): 7-8 fold
- concentration range of very strong agonism for [3H]thymidine incorporation ([6]; presenescent fibroblasts): 10 to 100 ng/mL
- agonist-stimulated inositol phosphates (IPs) production (Phospholipase C (PLC)): dramatically reduced

Molecule: bisindolylmaleiamide [bis-indolylmaleiamide]
- cAMP content in LPA-stimulated cells in presence of PKC inhibitor (cellular cAMP): inhibition of cAMP accumulation
